Test results from patent US20090047221A1 (NIPRI LIMITED, priority 2004, published 2009).

Columns and labels:
Assay type in all cases: cell-based
MCF-7 = test: MTT assay (anti-proliferative activity); details: 96 h continual exposure, read-out: IC 50 MCF-7
MDA-MB-468 = test: MTT assay (anti-proliferative activity); details: 96 h continual exposure, read-out: IC 50 MDA-MB-468
MalMe3M = test: MTT assay (anti-proliferative activity); details: 96 h continual exposure, read-out: IC 50 MalMe3M
SkMel28 = test: MTT assay (anti-proliferative activity); details: 96 h continual exposure, read-out: IC 50 SkMel28
[1] = tested on: breast cancer (MDA-MB-468 and MCF-7 cell lines) and melanoma cell lines (MalMe3, SkMe128); test: Cell cycle analysis by flow cytometry (propidium iodide); apoptosis as cells in sub G0/G1 (pre G0) peak; details: following treatment with IC70 concentration of compound
Method: Assessment of cell cycle analysis was performed using propidium iodide staining of cells and subsequent analysis on a Beckton Dickinson flow cytometer. […] The following day the medium was removed and replaced with 5 ml medium per flask containing the appropriate drug concentrations to be tested. 40 mg/ml stock drug solutions in DMSO were stores at −20° C. and on the day off drug treatment working solutions of 4 mg/ml were prepared in medium from which the final drug dilutions were prepared. Cells were maintained in an incubator (37° C., 5% CO2) for up to 96 h post treatment. After 24, 48, 72 or 96 h time points the medium from each flask was collected, stored on ice, and the remaining cells in the flasks were trypsinised by aiding 1 ml trypsin-EDTA solution to each flask. Cells were replaced into the incubator for 10 min to allow them to detach from the plastic plate. The cells in each flask were collected by adding the appropriate medium removed from each flask back to the corresponding flask and then placing medium containing both the attached and floating cells into a 15 ml tube. Cells were centrifuged at 4° C. for 5 min at 1500 rpm and the supernatant removed from each tube. The remaining cells were washed twice in ice cold PBS and then fixed in ice cold methanol overnight at −20° C. On the day of analysis of cells each tube was centrifuged at 4° C. for 5 min at 1500 rpm and the methanol removed and the cells washed twice in ice cold PBS. 20 μl propidium iodide solution (1 mg/ml) and 20 μl RNase A (10 mg/ml solution) were added to 1 ml PBS per tube and the cells were incubated for 30 min at 37° C. Cells were analysed on the flow cytometer and cell cycle changes were assessed.

**Q.** For `CC(C)CC(NC(=O)c1ccc2c(c1O)C(=O)OC(C)C2)C(=O)OC(C)(C)C` (mixture of isomers) [ALM-55, Leucine Tert-Butyl Ester Amide], which IC50 (MCF-7) is on record?
**A.** 43.4 µM

**Q.** And the IC50 (MDA-MB-468)?
**A.** 12.8 µM

**Q.** What about the IC50 (MalMe3M) of the same molecule?
**A.** 22.9 µM

**Q.** What about the IC50 (SkMel28) of the same molecule?
**A.** 79.2 µM

**Q.** And the “% Cells in Pre G0 phase of Cell Cycle” value [1]?
**A.** 3.4%

**Q.** `CCCCC/C=C\C/C=C\C/C=C\CCCCCOC(=O)c1ccc2c(c1O)C(=O)OC(C)C2` (racemic) [ALM-43, γ-Linolenyl Ester] was tested. Which IC50 (MCF-7) did it give?
**A.** 2.3 µM

**Q.** And the IC50 (MDA-MB-468)?
**A.** 4.3 µM

**Q.** And the IC50 (MalMe3M)?
**A.** 23.5 µM

**Q.** What about the IC50 (SkMel28) of the same molecule?
**A.** 21.3 µM

**Q.** What about the “% Cells in Pre G0 phase of Cell Cycle” value [1] of the same molecule?
**A.** 11.8%

**Q.** With `CCCCCCNC(=O)c1ccc2c(c1O)C(=O)OC(C)C2` (racemic) [ALM-49, Hexyl Amide] as the molecule, how does the IC50 (MCF-7) read?
**A.** 26.2 µM

**Q.** What about the IC50 (MDA-MB-468) of the same molecule?
**A.** 3.3 µM

**Q.** And the IC50 (MalMe3M)?
**A.** 65.5 µM

**Q.** And the IC50 (SkMel28)?
**A.** 105 µM

**Q.** And the “% Cells in Pre G0 phase of Cell Cycle” value [1]?
**A.** 14.1%

**Q.** Which IC50 (MCF-7) does the source give for `CC1(C)Cc2ccc(C(=O)N[C@@H](Cc3ccccc3)C(=O)O)c(O)c2C(=O)O1` [ALM-74, L-Phenyl Alanine Amide of Compound ALM-73] here?
**A.** 2.21 µM

**Q.** What about the IC50 (MDA-MB-468) of the same molecule?
**A.** 1.83 µM

**Q.** And the IC50 (MalMe3M)?
**A.** 7.8 µM

**Q.** And the IC50 (SkMel28)?
**A.** 11.7 µM

**Q.** And the “% Cells in Pre G0 phase of Cell Cycle” value [1]?
**A.** 34.4%
